In patent US6433019B1, “Neurotrophic factor secretion promoters” (Sumitomo Pharmaceuticals Company, Limited, priority 1998, dated 2002):
Where two headings read alike, the source gives them in different places.

Assays:
BDNF-trkB complex = assay: BDNF release: sandwich immunoassay of BDNF-trkB complex on the cell surface; type: cell-based, rat; settings: FIG. 3B
Source text: The effects of an NO donor on the BDNF release were studied in order to clarify the inhibitory effects of SNAP at a high dose on the BDNF protein accumulation. First, the measurement of BDNF concentration in the culture supernatant was tried, but the concentration of BDNF therein was below a detection limitation value of an ordinary EIA, which was considered that the released BDNF immediately combines with the cell surface, even with the trkB receptor. Then, using an anti-pan-trk receptor antibody, a sandwich immunoassay was tried in order to determine the BDNF combined with a trk B receptor on the cell surface.

BDNF protein = BDNF protein in the cells by EIA; type: cell-based, rat; settings: for BDNF protein in the cells: FIG. 2C
Procedure: (§1) The following experiment was done in order to confirm the NO production by neural cells, and to clarify which isozyme of three nitric oxide synthase isozymes (References el and e2) (neuronal type; nNOS, endothelial type; eNOS and inducible type; iNOS) is involved with the NO production, The cultured neural cells were prepared by using the neural cells from the cerebral neocortex of rat embryo (E18), and culturing thereof in a serum free medium for 7 days (Reference e3). The supernatant of the culture medium was collected, and the concentration of nitrite was determined, which was used as an index for the total amount of NO production (FIG. 1A). The concentration of nitrite was determined by Griess' method (Reference e4). During the cultivation, the accumulation of nitrite in the supernatant was increased. The expression of NOS in the cultured cells was detected by Western blotting (FIG. 1B). The protein extracted from the cultured cells being electrophoresed on a nitrocellulose membrane was detected by labeling it with 3 anti-NOS antibodies (Transduction Lab., 1/500 to 1000 dilution), treating with peroxidase-labeled anti-IgG antibody, and visualizing by chemical luminescence reaction (ECL kit by Amersham Pharmacia Biotech). In the cultured neural cell sample, the nNOS-like immunoreaction was detected, but eNOS immunoreaction was hardly detected, and further INOS immunoreaction was not detected at all. The product by nNOS immunoreaction as mentioned above has a molecular weight of about 160 kD, which is coincident with that of nNOS as reported in literatures. […]
(§2) From the finding that the inhibition of NO synthesis in the cultured brain neural cells increased the expression of BDNF gene, it was clarified that endogenous NO affect the regulation of BDNF gene expression. […] SNAP was added to the culture system at various concentrations, and 3 hours and 5 hours thereafter, the BDNF MRNA was determined by quantitative RT-PCR, and the BDNF protein in the cells was determined by EIA, in the same manner as in Example 2.

[1] = cited from earlier work; for serious side effects: oral administration to human, estimated
[2] = tested on: cultured neural cells from the cerebral neocortex of rat embryo (E18); assay: NO production (nitrite, Griess' method) in the cultured neural cells; type: cell-based; settings: 3 hours and 5 hours after addition, FIG. 2A
Procedure: as §1, with “During the cultivation, the accumulation of nitrite in the supernatant was increased.” left out, “all.” for “all. The product by nNOS immunoreaction as mentioned above has a molecular weight of about 160 kD, which is coincident with that of nNOS as reported in literatures.”

[3] = tested on: cultured brain neural cells; assay: Growth of cultured neural cells (cytotoxicity); type: cell-based, rat; settings: high dose (1000 μM)
[4] = compared with other NO donors (Reference e5); cited from earlier work
BDNF mRNA = BDNF mRNA by quantitative RT-PCR in cultured brain neural cells; type: cell-based, rat
Procedure: as §1, §2

[5] = rats, cited from earlier work

In the case of `N[C@@H](CCC(=O)O)C(=O)O` [glutamic acid], the “BDNF secretion promoting activity” value (BDNF-trkB complex) is reported as “did not show a distinguished BDNF secretion promoting activity” and the “BDNF synthesis promoting activity” value (BDNF protein) is reported as “potent BDNF synthesis promoting activity”.

In the case of `N=C(N)NCCC[C@H](N)C(=O)O` [arginine], the toxicity ([1]; up to 20 g per day of arginine glutamate by intravenous drip) is given as “quite low”.

For `CC(=O)NC(C(=O)O)C(C)(C)SN=O` (racemic) [SNAP, S-nitroso-N-acetyl-DL-penicillamine], the “amount of the BDNF-trkB complex” value (BDNF-trkB complex; dose of 100 μM or more) was “significantly increased”, the “NO release from the NO donor (nitrite)” value [2] was “NO was released from the NO donor” and the growth of cells [3] was “no change in the growth of cells”. For the same molecule, the cytotoxicity [4] was “weaker than that of other NO donors”, the “BDNF protein in the cells” value (BDNF protein; higher dose than 30 μM) was “dose-dependent decrease” and the “BDNF protein in the cells” value (BDNF protein; only at 30 μM) was “increased”. For the same molecule, the “expression of BDNF gene” value (BDNF mRNA; lower dose (30 to 300 μM), FIG. 2B) was “increased dose-dependently” and the “expression of BDNF mRNA” value (BDNF mRNA; quite high dose (1000 μM), FIG. 2B) was “inhibited”.

For `O=[N+]([O-])O[C@@H]1CO[C@H]2[C@@H]1OC[C@@H]2O` [ISMN, isosorbide mononitrate], the LD50 ([5]; i.v.) is given as 40 mg/kg and the LD50 ([5]; p.o.) is given as 1050 to 1550 mg/kg.

For `O=[N+]([O-])O[C@H]1CO[C@H]2[C@@H]1OC[C@H]2O[N+](=O)[O-]` [ISDN, isosorbide dinitrate], the serious side effects ([1]; dose up to dozens mg per day) is given as “does not show serious side effects”.

With `COCC(/C(C)=C/C(=N/O)C(N)=O)[N+](=O)[O-]` (stereo not shown) [NOR1] the “expression of BDNF gene” value (BDNF mRNA; dose not given) was “exhibited the same promoting activity”.

For `O=[N+]([O-])OCC(CO[N+](=O)[O-])O[N+](=O)[O-]` [NTG, nitroglycerin], the serious side effects ([1]; dose up to several mg per day) is listed as “does not show serious side effects”.
